One may read the melting point as the temperature, or range, at which the solid turns liquid.

Compound `CCCc1nc(C)n2nc(S(=O)(=O)N(C)C)nc2c1Cc1ccc(-c2ccccc2C#N)cc1` yielded a melting point of 158 °C. The compound `Cc1cc(C2OC(C)(C)N=C2c2ccccc2)cc(C)c1N(C)C` (stereo unspecified) yielded a melting point of 91 to 92 °C. The compound `CC1(C)Cc2cccc(C(=O)O)c2S1` returned a melting point of 179 to 182 °C. Compound `O=C(NC(=O)c1c(Cl)cccc1Cl)Nc1ccc(-c2ccccc2)cn1` displayed a melting point of 221 to 231 °C. As for `Cc1cccc(-c2[nH]c(C(C)C)nc2-c2cccc(-c3ccc(N)cn3)c2)n1`, the melting point fell in the range of 119 to 124 °C.

As for `O=c1[nH]c2cc(Cl)ccc2n1C1CCN(CCNC(c2ccc(F)cc2)c2ccc(F)cc2)CC1`, the melting point amounted to 199 °C. Turning to `Cc1ccc(S(=O)(=O)N=[N+]=[N-])cc1`, the melting point fell in the range of 79 to 82.5 °C. Turning to `COc1ccc(CNc2cnn[nH]2)cc1OC1CCCC1`, the melting point was 113 to 114 °C. Under `CC(=O)SCCc1noc(C(C)c2ccc(-c3ccccc3)c(F)c2)n1` (stereo unspecified) stands 56 to 57 °C; under `COc1cc(OC)nc(Oc2cccnc2CO)n1`, 115 °C. For the compound `Cn1c2cc(Cl)ccc2c2c(Cl)nc(-c3ccncc3)nc21`, the melting point was in the range of 272 to 274 °C. In turn, `CCCC=Cc1c(C(C)C)nc(C(C)C)c(CO)c1-c1ccc(-c2ccccc2)cc1` yielded a melting point of 50 to 52 °C. Compound `Cc1nc(-c2ccccc2C(F)(F)F)c(CCC(=O)O)o1` gave a melting point of 118 to 119 °C. The compound `N#Cc1sc2cc(NC(=O)OCc3ccccc3)ccc2c1Cl` displayed a melting point of 155 to 166 °C. The figure for `CC(C)(C)c1cc(C#N)c(O)cn1` is 185 to 195 °C; for `CS(=O)(=O)c1cnc(Cl)c(Cl)c1` it is 129 to 130 °C; for `FC(F)(F)c1cc(CN2CCc3cc(OC[C@H]4CO[C@](Cn5ccnc5)(c5ccc(Cl)cc5Cl)O4)ccc3C2)ccc1Cl` (racemic) it is 107 to 108 °C. In turn, `CC(C)C[C@H](NC(=O)OCc1ccccc1)C(=O)N[C@@H](Cc1ccccc1)C(=O)CSc1ccccc1` came in with a melting point of 105 to 106 °C.

Compound `COc1ccc(-n2c(=O)n(O)c(=O)c3cc(F)c(N4CCN(C)CC4)cc32)cc1` showed a melting point of 195 to 196 °C. With `CCCc1nn(-c2ccc(C(F)(F)F)cn2)cc1CCCOc1cc(CCC(=O)O)n(-c2ccccc2)n1`, the melting point fell in the range of 149 to 150 °C. As to `O=C1CCC(c2ccc(OCCCN3C(=O)c4ccccc4C3=O)c(Cl)c2)=NN1`, the melting point was in the range of 230 to 232 °C. With `O=C1CSc2cc(-c3cccc([N+](=O)[O-])c3)ccc2N1`, the melting point fell in the range of 290 to 292 °C. Compound `Cc1c(Cc2cccc(C(F)(F)F)c2)sc2c(-c3cccc(C(=O)O)c3)cccc12` showed a melting point of 172 to 173 °C. Turning to `CCCCc1cc(OCc2ccc(-c3ccccc3C(=O)OC)cc2)c2ccccc2n1`, the melting point was 105 °C. Regarding `Cc1oc(-c2ccccc2)nc1C(O)COc1ccc(CC2SC(=N)NC2=O)cc1` (stereo unspecified), the melting point lay in the range of 238 to 239 °C. In turn, `COc1ccc(C(=O)Nc2ccccc2Nc2ccccc2)cc1` gave a melting point of 148 to 150 °C. As for `CCc1nc2c(C)cc(C)nc2n1Cc1ccc(C(=C(Cl)C(=O)O)c2ccccc2)cc1`, the melting point lay within 120 to 125 °C. Under `CC(C)N(CCC(CCN(C(C)C)C(C)C)(C(N)=O)c1ccccc1)C(C)C` stands 102 to 103 °C; under `N#CC(C=O)c1ccc(NS(=O)(=O)c2cccc(Cl)c2Cl)cc1` (stereo unspecified), 88 to 102 °C. Turning to `Cc1cc(-n2c(C)ccc2C)c(C)cc1N=CN(C)C`, the melting point fell in the range of 90 to 91 °C. Compound `CN(C)CCCC#Cc1cnc(NC(=O)OC(C)(C)C)nc1` had a melting point of 119 to 120 °C. `CCCOc1cc2c(c3c(=O)c(-c4ccc(OC)cc4)cn(CCCN4CCOCC4)c13)CCC2` registered a melting point of 135 to 137 °C. The compound `N=C(NCCNC(c1ccccc1)(c1ccccc1)c1ccccc1)N[N+](=O)[O-]` yielded a melting point of 217 to 219 °C. Compound `CCC(=O)N1CCN(C(=O)COC2c3ccccc3C(=O)N2c2ccc3ccc(OC)nc3n2)CC1` (stereo unspecified) displayed a melting point of 160 °C. `Cc1csc(C2CCN(CCCC(O)c3ccc(F)cc3)CC2)n1` (stereo unspecified) displayed a melting point of 98 to 99 °C.

In the case of `CC(COc1ccc(O)c(C(N)=O)c1)N(Cc1ccccc1)CC(O)COc1ccc(OCC(N)=O)cc1` (stereo unspecified), the melting point lay in the range of 145 to 149 °C. With `COC(=O)C[C@H](O)C[C@H](O)CCc1c(-c2ccc(F)cc2)c(-c2ccccc2)c(C(=O)NCc2ccc(F)cc2)n1C(C)C`, the melting point lay within 49 to 50 °C. The figure for `CC(C)c1ccccc1Nc1nc(N)nc2c1-c1ccccc1C2` is 193 to 195 °C; for `CNC(=O)c1cccc(F)c1Nc1nc(Nc2ccc3c(c2)N(CCOC)C(=O)CCC3)ncc1Cl` it is 199 to 204 °C; for `Cc1ccc2c(c1)C(=O)N1CCN=C1N2N1CCCCC1` it is 197 to 199 °C. As for `CCN(CC)C(=N)N[N+](=O)[O-]`, the melting point lay within 96 to 97 °C. With `CCC(=O)N[C@@H]1CN(C(=O)c2nn(C)c3ccccc23)C[C@@H]1C` (relative stereo), the melting point lay in the range of 139 to 141 °C. For `O=C(O)CCC(O)c1ccc(-c2ccccc2)c(Cl)c1` (stereo unspecified), the melting point lay within 87 to 88 °C. With `Cc1cccc(C)c1C1C(=O)CC(C)(C)CC1=O`, the melting point was 177 to 186 °C. On to `CC(C)(C)c1ccc(Cn2cc(C(=O)C(=O)O)c3cc(-c4ccc(C(C)(C)C)cc4)ccc32)cc1`, for which the melting point was 111 to 112 °C. In turn, `CC(C)(C)c1cc(CCc2ccccc2NC(=O)NCCc2ccc(F)cc2)cc(C(C)(C)C)c1O` gave a melting point of 177 to 179 °C. The figure for `O=C(O)c1ccc(-c2cnc3c(c2)N(Cc2c(F)ccc(F)c2Cl)C(=O)CN3)cc1` is above 300 °C; for `CC(=NOCCOS(C)(=O)=O)c1ccc(-c2ccc(F)cc2)cc1` it is 103 to 106 °C. Consider `NS(=O)(=O)c1cc(C(=O)O)cc(NCc2ccccc2)c1Oc1ccc(OCc2ccccc2)cc1`, for which the melting point lay in the range of 249 to 251 °C.

`CCCCCCCC(=O)Oc1ccc(-c2nc(-c3ccc(N(C)C)cc3)c(C)[nH]2)cc1OC` returned a melting point of 126 to 129 °C. In turn, `N#CNC(=NCCN1CCC(C2(c3ccc(F)cc3)OCCO2)CC1)N1CCCCC1` showed a melting point of 155 to 157 °C.

The compound `O=C1C(Cl)=C(Cl)C(=O)c2cc(Cl)ccc21` showed a melting point of 148 °C. The figure for `COc1cc(N(C)C)nc(NC(=O)NS(=O)(=O)c2ccccc2Cl)n1` is 224 to 226 °C. For `COc1ccc(Nc2cccc(Cl)n2)cc1`, the melting point is 74 to 76 °C.

For the compound `Nc1ccc(OC2CCN(C(=O)OCc3ccccc3)C2)cc1CS(=O)(=O)c1cccc2ccccc12` (stereo unspecified), the melting point lay within 162 to 164 °C. With `COC(=O)Cc1ccccc1N(Cc1ccc(Cl)cc1)S(C)(=O)=O`, the melting point lay within 73 to 75 °C. The figure for `CCOC(=O)C1=C(c2ccc(-n3c(C)nc4cnccc43)cc2)NC(OC)=NC1c1ccccc1Cl` (stereo unspecified) is 228 to 232 °C; for `CSc1sc2[nH]c(=O)c(=O)[nH]c2c1C#N` it is above 225 °C. As to `CCC(=O)CCCCCCC(=O)c1ccc(OCc2ccccc2)c(OCc2ccccc2)c1`, the melting point is 67 to 68 °C. `Cc1cc(C(=S)CBr)ccc1O` showed a melting point of 118 to 120 °C. `N#Cc1cc(N2C(=O)C3=C(CCCC3)C2=O)c(F)cc1Cl` displayed a melting point of 160 to 162 °C. With `CCCCc1ccc(C(=O)NCc2c[nH]c(=S)n2[C@H]2CCc3c(F)cc(F)cc3C2)cc1`, the melting point fell in the range of 242 to 243 °C.

The compound `COc1cc2ncnc(N3CCN(C(=O)Nc4ccc(OC(C)C)cc4)CC3)c2cc1OC` had a melting point of 220 to 222 °C. For the compound `COc1ccc(C[C@H]2CC[C@@H]3[C@@H](CCC(=O)N3Cc3ccccc3)C2)cc1`, the melting point is 118 to 119 °C. The figure for `N#Cc1cccc(-c2cnc3cnc(-c4ccc(O)cc4)nc3c2)c1` is above 268 °C; for `O=C1OCC(c2ccccc2)C1CS` (stereo unspecified) it is 41 to 42 °C. In turn, `CCCCCCCCCCCCCCCCSCC(C)(CO)C(=O)OC` (stereo unspecified) yielded a melting point of 25 to 27 °C. Under `Cc1c(I)c(=O)n(-c2cc(C(=O)OC(C)C)c(Cl)cc2F)c(=O)n1C` stands 147 to 150 °C; under `CC(C)(C)c1cc(NC(=O)c2cccn2-c2ccc(N)cc2)cc(C(C)(C)C)c1O`, 218 to 219 °C. The figure for `Cc1ccc(C2CCN(Cc3ccc(COc4cccc5c4CN(C4CCC(=O)NC4=O)C5=O)cc3)CC2)cc1` (stereo unspecified) is 208 to 210 °C; for `Cc1nc2n(C)ccn2c(=O)c1CCN1CCC(Nc2nc3ccccc3[nH]2)CC1` it is 230 °C; for `O=C1CCNc2nc(Br)ccc21` it is 196 to 197 °C.

Compound `Nc1cc(Cl)ccc1-c1noc(=O)[nH]1` yielded a melting point of 159 to 161 °C. Turning to `CC(=O)Nc1cnn2c1-c1ccccc1N(C(C)=O)C2C` (stereo unspecified), the melting point is 218 to 220 °C. Regarding `COc1cc(C(=O)Nc2cc(Oc3ccc4nc(NC(=O)C5CC5)cn4n3)ccc2C)n(C)n1`, the melting point was found to be 224 °C. `CC(=O)C(=Cc1cc(O)c(O)c([N+](=O)[O-])c1)C(C)=O` gave a melting point of 175 to 178 °C. In turn, `CC(C)(C)c1ccc(OCC(=O)O)cc1` returned a melting point of 93 to 95 °C. Under `CC(C)=NOCOc1cc(-n2c(=O)cc(C(F)(F)F)n(C)c2=O)c(F)cc1Br` stands 121 °C; under `Cc1nnc(C(=O)CCCCCCOc2ccc(O)cc2)o1`, 134 to 135 °C; under `O=C(c1nc2ccc(O)cc2[nH]1)N1CCC(=Cc2ccc(Cl)cc2)CC1`, 88 to 89 °C. Turning to `COc1ccc(C(=O)c2cn3c4c(cccc24)OCC3CN2CCOCC2)cc1` (stereo unspecified), the melting point fell in the range of 209 to 214 °C. Turning to `CC1(COCC(COCC2(C)COC2)(COCC2(C)COC2)COCC2(C)COC2)COC1`, the melting point lay within 108 to 110 °C. Take `O=C(c1cc(O)c(O)c([N+](=O)[O-])c1)c1nc2ccccc2[nH]1`: the melting point was 240 to 250 °C. The compound `COc1cccc(C(=O)Nc2ccc(C(C)=O)cc2)c1` yielded a melting point of 152 to 154 °C. In turn, `COc1cc(-n2nc(C)[nH]c2=O)ccc1C` displayed a melting point of 164 to 168 °C. Take `CCN(CC)CC(O)CNC(=O)Cn1ncc(-c2ccccc2)c1-c1ccccc1` (stereo unspecified): the melting point was in the range of 70 to 72 °C.

Source of the values: a melting point compilation (Tetko et al.; mined from patent text by program, amines drawn as free bases though some values may be those of a salt).
